Experimental data as given in patent publication US20120157471A1, “BENZIMIDAZOLE DERIVATIVES” (PFIZER INC., priority 2009, published 2012).

Key:
[1] = biological target: T1, human Smo (amino acids 181-787) (Homo sapiens, UniProt Q99835); assay: Smo radioligand competition binding assay (displacement of 3H-PF-03451358 from HEK293 membranes); conditions: for inhibition at 0.05 µM: 0.05 μM test compound, displacement of 3H-PF-03451358, read-out: SMO % inh. @ 0.05 μM; for IC50: radioligand competition binding
T1 construct: expressed in transfected cells; membrane preparation
T1 sequence (Q99835 181-787): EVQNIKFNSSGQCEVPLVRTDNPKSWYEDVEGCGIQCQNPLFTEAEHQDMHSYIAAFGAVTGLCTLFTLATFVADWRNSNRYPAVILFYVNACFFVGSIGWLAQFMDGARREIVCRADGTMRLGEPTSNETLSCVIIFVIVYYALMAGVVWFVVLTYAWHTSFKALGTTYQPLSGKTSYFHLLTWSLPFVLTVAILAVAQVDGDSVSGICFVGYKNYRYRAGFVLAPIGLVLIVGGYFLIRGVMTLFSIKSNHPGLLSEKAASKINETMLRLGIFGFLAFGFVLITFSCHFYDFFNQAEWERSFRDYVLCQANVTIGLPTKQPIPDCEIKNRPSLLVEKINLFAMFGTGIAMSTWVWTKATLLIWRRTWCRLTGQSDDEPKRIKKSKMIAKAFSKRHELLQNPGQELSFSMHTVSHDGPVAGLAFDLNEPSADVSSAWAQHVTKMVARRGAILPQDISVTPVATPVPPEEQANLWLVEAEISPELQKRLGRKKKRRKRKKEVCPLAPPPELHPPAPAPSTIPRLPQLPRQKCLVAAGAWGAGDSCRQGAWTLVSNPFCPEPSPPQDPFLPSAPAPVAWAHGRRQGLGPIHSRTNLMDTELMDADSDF
Procedure, shortened: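 Displacement of 3 nM tritiated PF-03451358 measured by filtration and scintillation counting after 2 h at room temperature, using 40 μg/well HEK293 membranes bearing cell-surface Smo 181-787, pH 7.5 buffer. Specific binding defined against 30 μM unlabelled ligand; IC50 via variable-slope sigmoidal fit.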

[2] = test system: Gli-Luc/MEF cells (Smo); assay: Gli-Luc/MEF assay (Shh-stimulated luciferase reporter under the Gli response element); type: cell-based, mouse; conditions: Mus musculus, MEF, 48 h
Procedure, shortened: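 IC50 derived from luminescence (Bright-Glo) after 48 h at 37° C, 5% CO2, with compound at […] (3-fold dilutions) added together with mouse Shh at 2 μg/mL final. Cells: MEFs from Gli-Luc transgenic mice.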

Structure (SMILES)	inhibition at 0.05 µM [1]	IC50 [1]	IC50 [2]
CN1CCN(C2CCN(c3cc(-c4nc5ccccc5n4C)c(Cl)cn3)CC2)CC1 [Example A-113, 2-{5-chloro-2-[4-(4-methylpiperazin-1-yl)piperidin-1-yl]pyridin-4-yl}-1-methyl-1H-benzimidazole]	72%	0.125 µM	0.017 µM
Cn1c(-c2nc(N3CCOCC3)ncc2Cl)nc2ccccc21 [Example C-12, 2-(5-chloro-2-morpholin-4-ylpyrimidin-4-yl)-1-methyl-1H-benzimidazole]	93%	0.047 µM	0.06 µM
Cn1c(-c2cc(N3CCC(O)(c4ccncn4)C3)ncc2Cl)nc2ccccc21 (centres unmarked) [Example A-122, 1-[5-chloro-4-(1-methyl-1H-benzimidazol-2-yl)pyridin-2-yl]-3-pyrimidin-4-ylpyrrolidin-3-ol]	59%		0.038 µM
COCC(=O)N1CCN(c2ncc(Cl)c(-c3nc4ccccc4n3C)n2)CC1 [Example C-16, 2-{5-chloro-2-[4-(methoxyacetyl)piperazin-1-yl]pyrimidin-4-yl}-1-methyl-1H-benzimidazole]	99%	0.014 µM	0.0127 µM
Cn1c(-c2cc(N3CCC(C)(O)CC3)ncc2Cl)nc2ccccc21 [Example A-30, 1-[5-chloro-4-(1-methyl-1H-benzimidazol-2-yl)pyridin-2-yl]-4-methylpiperidin-4-ol]	96%	0.028 µM	0.011 µM
Cn1c(-c2cc(N3C[C@H]4CC[C@@H](C3)N4S(C)(=O)=O)ncc2Cl)nc2ccccc21 [Example A-175, 2-{5-chloro-2-[(1R,5S)-8-(methylsulfonyl)-3,8-diazabicyclo[3.2.1]oct-3-yl]pyridin-4-yl}-1-methyl-1H-benzimidazole]	97%	0.017 µM	0.009 µM
CN(CC(N)=O)c1cc(-c2nc3ccccc3n2C)c(Cl)cn1 [Example A-186, N~2~-[5-chloro-4-(1-methyl-1H-benzimidazol-2-yl)pyridin-2-yl]-N~2~-methylglycinamide]	78%	0.097 µM	0.065 µM
Cn1c(-c2cc(N3CCS(=O)(=O)CC3)ncc2Cl)nc2ccccc21 [Example A-89, 2-[5-chloro-2-(1,1-dioxidothiomorpholin-4-yl)pyridin-4-yl]-1-methyl-1H-benzimidazole]	88%	0.04 µM	0.044 µM
CC1C(=O)NCCN1c1cc(-c2nc3ccccc3n2C)c(Cl)cn1 (centres unmarked) [Example A-171, 4-[5-chloro-4-(1-methyl-1H-benzimidazol-2-yl)pyridin-2-yl]-3-methylpiperazin-2-one]	97%	0.031 µM	0.028 µM
CNS(=O)(=O)C1CCN(c2cc(-c3nc4ccccc4n3C)c(Cl)cn2)C1 (centres unmarked) [Example A-104, 1-[5-chloro-4-(1-methyl-1H-benzimidazol-2-yl)pyridin-2-yl]-N-methylpyrrolidine-3-sulfonamide]	80%	0.037 µM	0.023 µM
Cn1c(-c2cc(N3CCC(NS(C)(=O)=O)CC3)ncc2F)nc2ccccc21 [Example D-11, N-{1-[5-fluoro-4-(1-melhyl-1H-benzimidazol-2-yl)pyridin-2-yl]piperidin-4-yl}methanesulfonamide]	98%	0.006 µM	0.0042 µM
Cn1c(-c2cc(N3CCN4C[C@H](O)CC4C3)ncc2Cl)nc2ccccc21 (stereo in doubt) [Example A-92, (7R,8aR)-2-[5-chloro-4-(1-methyl-1H-benzimidazol-2-yl)pyridin-2-yl]octahydropyrrolo[1,2-a]pyrazin-7-ol]	88%	0.079 µM	0.046 µM
Cn1c(-c2ccnc(N3CCCNCC3)c2)nc2ccccc21 [Example A-13, 2-[2-(1,4-diazepan-1-yl)pyridin-4-yl]-1-methyl-1H-benzimidazole]	66%	0.423 µM	0.089 µM
Cn1c(-c2cc(N3CCC(S(N)(=O)=O)CC3)ncc2Cl)nc2ccccc21 [Example A-66, 1-[5-chloro-4-(1-methyl-1H-benzimidazol-2-yl)pyridin-2-yl]piperidine-4-sulfonamide]	94%	0.014 µM	0.005 µM
Cn1c(-c2cc(N3CCC(NS(C)(=O)=O)CC3)ncc2Cl)nc2ccccc21 [Example A-5, N-{1-[5-chloro-4-(1-methyl-1H-benzimidazol-2-yl)pyridin-2-yl]piperidin-4-yl}methanesulfonamide]	97%	0.008 µM	0.0006 µM
Cn1nc2n(c1=O)CCN(c1cc(-c3nc4ccccc4n3C)c(Cl)cn1)CC2 [Example A-78, 7-[5-chloro-4-(1-methyl-1H-benzimidazol-2-yl)pyridin-2-yl]-2-methyl-2,5,6,7,8,9-hexahydro-3H-[1,2,4]triazolo[4,3-d][1,4]diazepin-3-one]	92%	0.014 µM	0.011 µM
Cc1noc(CC2CN(c3cc(-c4nc5ccccc5n4C)c(Cl)cn3)CCO2)n1 (centres unmarked) [Example A-45, 2-(5-chloro-2-{2-[(3-methyl-1,2,4-oxadiazol-5-yl)methyl]morpholin-4-yl}pyridin-4-yl)-1-methyl-1H-benzimidazole]	102%	0.013 µM	0.009 µM
Cn1c(-c2cc(N3CCC(CS(C)(=O)=O)CC3)ncc2Cl)nc2ccccc21 [Example A-51, 2-(5-chloro-2-{4-[(methylsulfonyl)methyl]piperidin-1-yl}pyridin-4-yl)-1-methyl-1H-benzimidazole]	99%	0.006 µM	0.007 µM
CC(=O)N1CCN(c2cc(-c3nc4ccccc4n3C)c(Cl)cn2)CC1 [Example A-1, 2-[2-(4-acetylpiperazin-1-yl)-5-chloropyridin-4-yl]-1-methyl-1H-benzimidazole]	90%	0.0152 µM	0.004 µM
Cn1c(-c2cc(N3C[C@](C)(CO)[C@](C)(CO)C3)ncc2Cl)nc2ccccc21 [Example A-108, {(3R,4S)-1-[5-chloro-4-(1-methyl-1H-benzimidazol-2-yl)pyridin-2-yl]-3,4-dimethylpyrrolidine-3,4-diyl}dimethanol]	76%	0.109 µM	0.059 µM
Cn1c(-c2cc(N3CCC(CO)(CCO)C3)ncc2Cl)nc2ccccc21 (centres unmarked) [Example A-85, 2-{1-[5-chloro-4-(1-methyl-1H-benzimidazol-2-yl)pyridin-2-yl]-3-(hydroxymethyl)pyrrolidin-3-yl}ethanol]	90%	0.017 µM	0.007 µM
Cn1c(-c2cc(N3CCC(NS(C)(=O)=O)CC3)ncc2Cl)nc2cccnc21 [Example A-36, N-{1-[5-chloro-4-(3-methyl-3H-imidazo[4,5-b]pyridin-2-yl)pyridin-2-yl]piperidin-4-yl}methanesulfonamide]	93%	0.023 µM	0.012 µM
CNC(=O)N(C)C1CN(c2cc(-c3nc4ccccc4n3C)c(Cl)cn2)C1 [Example A-151, 1-{1-[5-chloro-4-(1-methyl-1H-benzimidazol-2-yl)pyridin-2-yl]azetidin-3-yl}-1,3-dimethylurea]	83%	0.09 µM	0.026 µM
Cc1cnc(N2CCC(CS(C)(=O)=O)CC2)cc1-c1nc2ccccc2n1C [Example E-2, 1-methyl-2-(5-methyl-2-{4-[(methylsulfonyl)methyl]piperidin-1-yl}pyridin-4-yl)-1H-benzimidazole]	99%	0.018 µM	0.0209 µM
Cn1c(-c2cc(N3CCc4[nH]ncc4C3)ncc2Cl)nc2ccccc21 [Example A-173, 5-[5-chloro-4-(1-methyl-1H-benzimidazol-2-yl)pyridin-2-yl]-4,5,6,7-tetrahydro-1H-pyrazolo[4,3-c]pyridine]	83%	0.108 µM	0.024 µM
CNC(=O)N(C)C1CCN(c2cc(-c3nc4ccccc4n3C)c(Cl)cn2)C1 (centres unmarked) [Example A-182, 1-{1-[5-chloro-4-(1-methyl-1H-benzimidazol-2-yl)pyridin-2-yl]pyrrolidin-3-yl}-1,3-dimethylurea]	85%	0.05 µM	0.031 µM
Cc1ccc(N2CCC(S(C)(=O)=O)CC2)nc1-c1nc2ccccc2n1C [Example E-6, 1-methyl-2-{3-methyl-6-[4-(methylsulfonyl)piperidin-1-yl]pyridin-2-yl}-1H-benzimidazole]	89%	0.051 µM	0.0616 µM
CNC(=O)N1CCN(c2cc(-c3nc4ccccc4n3C)ccn2)CC1 [Example A-144, N-methyl-4-[4-(1-methyl-1H-benzimidazol-2-yl)pyridin-2-yl]piperazine-1-carboxamide]	78%	0.09 µM	0.159 µM
Cc1nnc2n1CCN(c1cc(-c3nc4ccccc4n3C)c(Cl)cn1)CC2 [Example A-67, 7-[5-chloro-4-(1-methyl-1H-benzimidazol-2-yl)pyridin-2-yl]-3-methyl-6,7,8,9-tetrahydro-5H-[1,2,4]triazolo[4,3-d][1,4]diazepine]	94%	0.033 µM	0.026 µM
CC(=O)NC1CCN(c2cc(-c3nc4ccccc4n3C)c(F)cn2)CC1 [Example D-14, N-{1-[5-fluoro-4-(1-methyl-1H-benzimidazol-2-yl)pyridin-2-yl]piperidin-4-yl}acetamide]	97%	0.019 µM	0.0172 µM
